Assays:
[1] = molecular target: Serine/threonine-protein kinase PLK1 (Homo sapiens, UniProt P53350)
[2] = molecular target: T1, TGF-beta receptor type-1 (Homo sapiens, UniProt P36897)
T1 sequence (P36897 whole entry): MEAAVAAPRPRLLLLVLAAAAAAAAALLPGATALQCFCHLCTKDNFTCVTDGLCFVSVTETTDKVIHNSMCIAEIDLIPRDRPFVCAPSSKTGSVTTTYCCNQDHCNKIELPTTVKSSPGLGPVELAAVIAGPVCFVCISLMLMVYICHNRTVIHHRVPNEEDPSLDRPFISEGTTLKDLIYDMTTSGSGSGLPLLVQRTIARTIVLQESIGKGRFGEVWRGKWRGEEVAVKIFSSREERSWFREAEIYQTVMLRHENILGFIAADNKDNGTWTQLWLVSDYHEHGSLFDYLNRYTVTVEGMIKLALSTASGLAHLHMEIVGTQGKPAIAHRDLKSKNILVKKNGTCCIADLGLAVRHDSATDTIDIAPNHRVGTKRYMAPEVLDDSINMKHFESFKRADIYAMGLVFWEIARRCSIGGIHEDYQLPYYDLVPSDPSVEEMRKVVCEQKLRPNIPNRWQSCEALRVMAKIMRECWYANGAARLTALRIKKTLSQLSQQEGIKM

[3] = molecular target: T2, Testis-specific serine/threonine-protein kinase 1 (Homo sapiens, UniProt Q9BXA7)
T2 sequence (Q9BXA7 whole entry): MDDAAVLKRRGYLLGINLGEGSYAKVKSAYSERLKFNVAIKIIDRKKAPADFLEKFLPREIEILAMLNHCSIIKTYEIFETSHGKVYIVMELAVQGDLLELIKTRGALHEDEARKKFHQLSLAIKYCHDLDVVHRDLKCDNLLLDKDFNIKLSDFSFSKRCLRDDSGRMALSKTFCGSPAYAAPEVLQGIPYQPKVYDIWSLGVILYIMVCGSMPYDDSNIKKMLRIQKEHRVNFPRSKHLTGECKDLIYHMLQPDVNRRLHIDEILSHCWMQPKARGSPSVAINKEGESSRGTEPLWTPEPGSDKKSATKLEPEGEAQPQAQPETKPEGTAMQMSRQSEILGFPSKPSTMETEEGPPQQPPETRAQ

[4] = molecular target: eIF-2-alpha kinase GCN2 (Homo sapiens, UniProt Q9P2K8, S808G)
[5] = molecular target: T3, Serine/threonine-protein kinase D1 (Homo sapiens, UniProt Q15139)
T3 sequence (Q15139 whole entry): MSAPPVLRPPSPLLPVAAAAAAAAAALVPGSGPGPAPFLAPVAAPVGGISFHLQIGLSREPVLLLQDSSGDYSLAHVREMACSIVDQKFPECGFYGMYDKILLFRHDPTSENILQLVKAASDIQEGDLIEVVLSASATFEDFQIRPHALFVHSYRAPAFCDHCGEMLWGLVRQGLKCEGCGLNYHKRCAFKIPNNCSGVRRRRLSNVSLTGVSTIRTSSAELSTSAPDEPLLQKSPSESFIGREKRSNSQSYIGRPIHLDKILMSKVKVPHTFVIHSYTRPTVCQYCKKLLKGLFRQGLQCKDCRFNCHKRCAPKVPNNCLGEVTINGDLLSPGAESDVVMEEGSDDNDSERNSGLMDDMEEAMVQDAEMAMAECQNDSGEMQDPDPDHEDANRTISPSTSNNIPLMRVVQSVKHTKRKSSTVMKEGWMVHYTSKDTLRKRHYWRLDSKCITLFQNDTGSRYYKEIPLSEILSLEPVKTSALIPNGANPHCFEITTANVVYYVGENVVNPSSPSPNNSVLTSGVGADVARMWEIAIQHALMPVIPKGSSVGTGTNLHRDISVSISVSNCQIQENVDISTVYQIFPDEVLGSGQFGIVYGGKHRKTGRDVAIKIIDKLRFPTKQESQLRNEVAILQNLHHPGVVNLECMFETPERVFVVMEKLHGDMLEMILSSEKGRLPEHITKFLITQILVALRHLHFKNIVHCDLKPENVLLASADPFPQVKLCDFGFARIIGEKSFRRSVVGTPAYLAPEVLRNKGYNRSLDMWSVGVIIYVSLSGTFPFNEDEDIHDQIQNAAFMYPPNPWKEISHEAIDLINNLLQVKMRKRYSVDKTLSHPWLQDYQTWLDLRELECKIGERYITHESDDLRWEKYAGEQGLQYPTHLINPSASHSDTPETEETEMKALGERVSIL

[6] = molecular target: T4, Dual specificity protein kinase TTK (Homo sapiens, UniProt P33981)
T4 sequence (P33981 whole entry): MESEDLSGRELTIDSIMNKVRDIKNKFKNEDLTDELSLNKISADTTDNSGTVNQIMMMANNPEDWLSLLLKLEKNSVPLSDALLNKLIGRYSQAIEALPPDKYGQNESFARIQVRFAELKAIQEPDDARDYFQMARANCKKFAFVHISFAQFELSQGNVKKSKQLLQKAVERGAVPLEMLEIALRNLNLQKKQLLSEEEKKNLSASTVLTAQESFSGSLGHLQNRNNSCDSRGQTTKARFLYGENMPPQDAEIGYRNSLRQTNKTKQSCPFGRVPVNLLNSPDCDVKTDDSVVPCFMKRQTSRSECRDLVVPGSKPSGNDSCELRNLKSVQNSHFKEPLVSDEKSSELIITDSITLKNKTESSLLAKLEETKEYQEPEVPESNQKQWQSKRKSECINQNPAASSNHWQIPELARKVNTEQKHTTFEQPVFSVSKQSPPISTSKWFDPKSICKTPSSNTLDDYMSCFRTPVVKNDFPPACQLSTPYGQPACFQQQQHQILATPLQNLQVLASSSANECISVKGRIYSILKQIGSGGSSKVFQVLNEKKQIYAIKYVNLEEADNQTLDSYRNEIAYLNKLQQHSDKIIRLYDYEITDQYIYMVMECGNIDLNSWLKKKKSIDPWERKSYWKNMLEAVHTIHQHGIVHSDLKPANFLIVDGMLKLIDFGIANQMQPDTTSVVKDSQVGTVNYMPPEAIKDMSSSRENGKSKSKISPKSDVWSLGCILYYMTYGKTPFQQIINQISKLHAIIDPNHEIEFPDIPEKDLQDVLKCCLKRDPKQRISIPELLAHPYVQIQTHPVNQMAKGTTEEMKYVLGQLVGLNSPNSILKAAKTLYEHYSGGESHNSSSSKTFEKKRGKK

[7] = molecular target: Tyrosine-protein kinase Srms (Homo sapiens, UniProt Q9H3Y6)

Row | Compound | Kd [1] [µM] | Kd [2] [µM] | Kd [3] [µM] | Kd [4] [µM] | Kd [5] [µM] | Kd [6] [µM] | Kd [7] [µM]
1 | COCC(=O)NC/C=C/c1ccc2ncnc(Nc3ccc(Oc4ccc(C)nc4)c(C)c3)c2c1 [CP-724714] | > 10 | > 10 | > 10 | > 10 | > 10 | > 10 | > 10
2 | Nc1nc(Nc2ccc(S(N)(=O)=O)cc2)nn1C(=O)c1c(F)cccc1F [JNJ-7706621] | 5 | > 10 | > 10 | 3.9 | – | – | > 10
3 | CCOc1cc2ncc(C#N)c(Nc3ccc(F)c(Cl)c3)c2cc1NC(=O)/C=C/CN(C)C [PELITINIB] | > 10 | > 10 | > 10 | 0.29 | > 10 | > 10 | > 10
4 | Oc1ccc(-c2nc(-c3ccncc3)c(-c3ccc(F)cc3)[nH]2)cc1 [SB-202190] | > 10 | > 10 | > 10 | > 10 | > 10 | 4.5 | > 10
5 | NC(=O)c1ccc(-c2nc(-c3ccc4c(c3)OCO4)c(-c3ccccn3)[nH]2)cc1 [SB-431542] | > 10 | – | > 10 | > 10 | – | > 10 | > 10

From ChEMBL document CHEMBL1150977, “A quantitative analysis of kinase inhibitor selectivity” (Nat Biotechnol, 2008)
